The values below come from patent publication US11352340B2, “Pyridine and pyridimine compounds as PI3K-gamma inhibitors” (Incyte Corporation, priority 2016, dated 2022).

The target of experiment [1] is PI3Kγ (p110γ) Recombinant Human Protein (Homo sapiens (Human), UniProt P48736). The experiment can be described thus: PI3K-γ Scintillation Proximity Assay. It is filed as biochemical. As to conditions: read-out: PI3K-gamma SPA IC50. The essentials: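 Radiometric SPA: reaction at room temperature for 120 min using 2 μM ATP with [γ-33P]ATP tracer, 20 μM PIP2 substrate and 13 nM human PI3Kγ (MOPS pH 6.7, MgCl2, DTT, CHAPS; 2% DMSO). EDTA quench with WGA beads, scintillation count, and IC50 fit of percent-of-control activity.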

For experiment [2], the system named is Phosphorylated Ribosomal Protein S6 (RPS6) in THP-1 cells. The experiment is described as follows: THP-1 RPS6 ELISA Assay. It is filed as cell-based, Human. As to conditions: Homo sapiens, MCP-1 stimulated, phospho-RPS6 ELISA, read-out: THP p-RPS6 ELISA IC50. The essentials:
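Phospho-RPS6 in lysates measured by ELISA at 450 nm, corrected at 540 nm, after MCP-1 challenge (10 nM, 15 min) of THP-1 cells that were starved overnight and exposed to test compound for 2 h at 37° C, 2×10^5 cells/well. Curve fit of percent inhibition gives IC50.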

For experiment [3], the target named is PI3Kδ (p110δ/p85α) Recombinant Human Protein (Homo sapiens (Human), UniProt O00329). The experiment is described as follows: PI3Kδ Scintillation Proximity Assay. It is filed as biochemical. The conditions noted are these: read-out: PI3K-delta SPA IC50. The essentials:
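IC50 was fitted to percent solvent-control activity from SPA scintillation counts after WGA bead capture of 33P-labelled lipid product. Reaction: 120 min, room temperature, 3.4 nM p110δ/p85α, 20 μM PIP2, 2 μM ATP with tracer, MOPS pH 6.7 buffer containing MgCl2, DTT, CHAPS, 2% DMSO.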
(In general: SPA uses beads or plates that emit light when radiolabelled molecules are held near them.)

Structures are written as SMILES. Structures can show the parent of a compound that is named as a salt.

PI3Kγ (p110γ) Recombinant Human Protein, sequence (P48736 whole entry): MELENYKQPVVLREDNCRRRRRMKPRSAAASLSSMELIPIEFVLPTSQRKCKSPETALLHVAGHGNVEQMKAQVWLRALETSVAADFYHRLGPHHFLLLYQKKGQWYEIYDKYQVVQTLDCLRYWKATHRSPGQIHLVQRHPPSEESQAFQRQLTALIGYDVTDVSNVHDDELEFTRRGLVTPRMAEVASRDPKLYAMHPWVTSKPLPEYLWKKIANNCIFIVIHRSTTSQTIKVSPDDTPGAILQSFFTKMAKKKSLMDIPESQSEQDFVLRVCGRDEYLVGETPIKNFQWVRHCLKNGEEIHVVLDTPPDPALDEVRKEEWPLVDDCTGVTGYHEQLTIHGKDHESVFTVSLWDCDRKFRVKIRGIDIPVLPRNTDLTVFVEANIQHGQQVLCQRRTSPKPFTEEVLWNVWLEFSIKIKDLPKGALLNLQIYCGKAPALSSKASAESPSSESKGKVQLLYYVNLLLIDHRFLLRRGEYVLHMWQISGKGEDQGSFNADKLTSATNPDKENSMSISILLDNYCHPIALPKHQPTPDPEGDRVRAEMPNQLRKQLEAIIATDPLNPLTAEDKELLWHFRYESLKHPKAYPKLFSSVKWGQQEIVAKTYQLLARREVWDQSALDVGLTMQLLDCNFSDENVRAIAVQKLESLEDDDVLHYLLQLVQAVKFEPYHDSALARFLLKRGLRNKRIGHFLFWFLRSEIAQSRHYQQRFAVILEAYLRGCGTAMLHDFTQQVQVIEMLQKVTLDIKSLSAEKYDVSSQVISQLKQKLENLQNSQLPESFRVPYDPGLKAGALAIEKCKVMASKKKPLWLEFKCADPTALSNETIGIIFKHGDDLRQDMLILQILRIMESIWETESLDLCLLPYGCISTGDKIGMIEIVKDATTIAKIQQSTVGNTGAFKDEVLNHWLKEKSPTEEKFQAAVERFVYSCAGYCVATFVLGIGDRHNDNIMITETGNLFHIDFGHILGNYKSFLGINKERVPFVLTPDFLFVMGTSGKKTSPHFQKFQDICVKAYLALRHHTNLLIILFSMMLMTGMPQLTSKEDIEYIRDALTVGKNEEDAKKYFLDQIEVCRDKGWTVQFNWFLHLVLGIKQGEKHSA
PI3Kδ (p110δ/p85α) Recombinant Human Protein, sequence (O00329 whole entry): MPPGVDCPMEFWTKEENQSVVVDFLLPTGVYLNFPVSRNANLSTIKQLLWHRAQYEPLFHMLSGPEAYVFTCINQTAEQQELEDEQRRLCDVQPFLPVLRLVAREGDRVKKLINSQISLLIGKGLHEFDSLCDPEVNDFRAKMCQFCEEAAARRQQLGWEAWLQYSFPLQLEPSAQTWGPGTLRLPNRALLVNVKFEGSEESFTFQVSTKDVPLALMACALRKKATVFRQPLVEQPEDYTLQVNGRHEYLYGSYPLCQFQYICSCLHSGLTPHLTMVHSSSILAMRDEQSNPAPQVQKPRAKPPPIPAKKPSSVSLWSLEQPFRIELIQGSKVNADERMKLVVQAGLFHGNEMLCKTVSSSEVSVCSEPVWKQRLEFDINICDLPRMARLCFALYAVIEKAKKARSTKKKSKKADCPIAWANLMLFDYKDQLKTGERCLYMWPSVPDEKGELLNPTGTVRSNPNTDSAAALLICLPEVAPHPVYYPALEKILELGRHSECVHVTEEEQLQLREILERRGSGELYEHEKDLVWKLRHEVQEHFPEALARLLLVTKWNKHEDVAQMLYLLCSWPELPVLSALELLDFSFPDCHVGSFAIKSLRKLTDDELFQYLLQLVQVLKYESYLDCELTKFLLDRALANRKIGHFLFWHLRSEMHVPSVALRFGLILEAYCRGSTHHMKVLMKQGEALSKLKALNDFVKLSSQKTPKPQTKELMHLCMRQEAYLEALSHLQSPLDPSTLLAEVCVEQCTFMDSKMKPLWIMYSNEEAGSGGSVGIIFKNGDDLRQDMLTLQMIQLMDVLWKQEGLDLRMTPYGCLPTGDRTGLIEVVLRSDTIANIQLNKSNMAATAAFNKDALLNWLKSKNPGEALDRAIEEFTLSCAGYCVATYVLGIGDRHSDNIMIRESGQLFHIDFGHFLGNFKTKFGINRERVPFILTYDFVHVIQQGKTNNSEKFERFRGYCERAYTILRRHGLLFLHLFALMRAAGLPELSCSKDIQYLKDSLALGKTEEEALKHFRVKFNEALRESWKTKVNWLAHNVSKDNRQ
PI3Kδ (p110δ/p85α) Recombinant Human Protein, sequence (P27986 whole entry partner): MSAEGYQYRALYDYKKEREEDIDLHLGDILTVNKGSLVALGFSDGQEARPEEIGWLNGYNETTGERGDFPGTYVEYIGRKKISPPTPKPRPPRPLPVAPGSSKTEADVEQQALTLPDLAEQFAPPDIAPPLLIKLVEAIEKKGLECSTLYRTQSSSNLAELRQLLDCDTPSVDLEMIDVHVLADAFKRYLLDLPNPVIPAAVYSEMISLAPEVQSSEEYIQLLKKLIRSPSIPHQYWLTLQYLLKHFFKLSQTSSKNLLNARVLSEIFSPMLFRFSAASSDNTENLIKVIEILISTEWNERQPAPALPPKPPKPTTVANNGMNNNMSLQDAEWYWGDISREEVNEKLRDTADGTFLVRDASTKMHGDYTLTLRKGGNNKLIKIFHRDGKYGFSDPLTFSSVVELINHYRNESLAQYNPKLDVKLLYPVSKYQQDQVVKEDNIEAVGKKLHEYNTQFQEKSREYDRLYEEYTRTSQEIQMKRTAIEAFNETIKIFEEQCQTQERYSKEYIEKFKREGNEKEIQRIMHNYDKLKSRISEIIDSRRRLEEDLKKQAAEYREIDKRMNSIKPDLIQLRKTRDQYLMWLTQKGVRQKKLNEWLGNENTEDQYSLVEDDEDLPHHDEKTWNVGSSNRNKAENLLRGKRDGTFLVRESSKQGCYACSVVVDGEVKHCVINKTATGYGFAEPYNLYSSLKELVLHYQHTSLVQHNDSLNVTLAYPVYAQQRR

Consider `COc1cncc(-c2ccnc(-c3nnc(NC(C)C)[nH]3)c2)c1` [Example 67, N-Isopropyl-5-(5-methoxy-3,4′-bipyridin-2′-yl)-4H-1,2,4-triazol-3-amine trifluoroacetate salt], for which the IC50 in experiment [1] was not above 500 nM; in experiment [2], more than 5000 nM; in experiment [3], not above 500 nM.
Consider `Cc1nc(-c2cc(-c3cncc(C(=O)N4CCN(C5CCN(C)CC5)CC4)c3)ccn2)[nH]c1C` [Example 158, (2′-(4,5-Dimethyl-1H-imidazol-2-yl)-3,4′-bipyridin-5-yl)(4-(1-methylpiperidin-4-yl)piperazin-1-yl)methanone], for which the IC50 in experiment [1] is not above 50 nM; in experiment [2] it was 1000 to 5000 nM; in experiment [3], not above 100 nM.
The matching figures for `Cc1nc(-c2cc(-c3cncc(C(=O)N4CCC4C(F)(F)F)c3)ccn2)[nH]c1C` (racemic) [Example 184, 2′-(4,5-Dimethyl-1H-imidazol-2-yl)-5-{[2-(trifluoromethyl)azetidin-1-yl]carbonyl}-3,4′-bipyridine trifluoroacetate salt]: not above 50 nM, 300 to 1000 nM and not above 50 nM.
On to `CNC(=O)c1nc(-c2cc(-c3cnn(Cc4ccc(Cl)cc4)c3)ccn2)[nH]c1C` [Example 296], for which the IC50 in experiment [1] is not above 50 nM; in experiment [2], more than 5000 nM; in experiment [3] it was more than 500 nM.
Turning to `Cc1nc(-c2cc(-c3cncc(C(=O)N(C)CC4(CO)CC4)c3)ccn2)[nH]c1C` [Example 205, 2′-(4,5-Dimethyl-1H-imidazol-2-yl)-N-{[1-(hydroxymethyl)cyclopropyl]methyl}-N-methyl-3,4′-bipyridine-5-carboxamide trifluoroacetate salt], the IC50 in experiment [1] is not above 50 nM; in experiment [2], 300 to 1000 nM; in experiment [3], not above 100 nM.
In the case of `COC1CN(C(=O)c2cncc(-c3ccnc(-c4nc(C)c(C)[nH]4)c3)c2)C1` [Example 199, 2′-(4,5-Dimethyl-1H-imidazol-2-yl)-5-[(3-methoxyazetidin-1-yl)carbonyl]-3,4′-bipyridine], the IC50 in experiment [1] was not above 50 nM; in experiment [2], not above 300 nM; in experiment [3], not above 50 nM.
Turning to `Cc1nc(-c2cc(-c3cnn(Cc4ccc(Cl)cc4)c3)ccn2)[nH]c1C` [Example 294, 4-(1-(4-Chlorobenzyl)-1H-pyrazol-4-yl)-2-(4,5-dimethyl-1H-imidazol-2-yl)pyridine Trifluoroacetate Salt], the IC50 was not above 50 nM in experiment [1], more than 5000 nM in experiment [2] and more than 500 nM in experiment [3].
On to `Cc1[nH]c(-c2cc(-c3cncc(N4CCOCC4)c3)ccn2)nc1C(=O)N1CC(NC(=O)OC(C)(C)C)C1` [Example 264, tert-Butyl (1-{[5-methyl-2-(5-morpholin-4-yl-3,4′-bipyridin-2′-yl)-1H-imidazol-4-yl]carbonyl}azetidin-3-yl)carbamate], for which the IC50 in experiment [1] was not above 100 nM; in experiment [2], 1000 to 5000 nM; in experiment [3], not above 50 nM.
`CCN(C)C(=O)c1cncc(-c2ccnc(-c3nc(C)c(C)[nH]3)c2)c1` [Example 198, 2′-(4,5-Dimethyl-1H-imidazol-2-yl)-N-ethyl-N-methyl-3,4′-bipyridine-5-carboxamide trifluoroacetate salt]: the IC50 was not above 50 nM in experiment [1], 300 to 1000 nM in experiment [2] and not above 50 nM in experiment [3].
Regarding `Cc1[nH]c(-c2cc(-c3cncc(N4CCOCC4)c3)ccn2)nc1C(=O)NCc1ccccc1` [Example 272, N-Benzyl-5-methyl-2-(5-morpholin-4-yl-3,4′-bipyridin-2′-yl)-1H-imidazole-4-carboxamide trifluoroacetate salt], the IC50 is not above 50 nM in experiment [1], not above 300 nM in experiment [2] and not above 50 nM in experiment [3].
